Data: patent US20230055321A1, “PYRIMIDOPYRROLE SPIRO COMPOUNDS AND DERIVATIVES THEREOF AS DNA-PK INHIBITORS” (MEDSHINE DISCOVERY INC., priority 2019, published 2023)
Where two headings read alike, the source gives them in different places.

What was measured:
Human-derived DNA-PK = Human-derived DNA-PK (Homo sapiens, UniProt P78527); test: DNA-dependent protein kinase (DNA-PK) inhibitory activity screening experiment (Eurofins, HTRF); assay type: biochemical; conditions: 50 nM GST-cMyc-p53, 30 minutes at room temperature
Experimental: Experimental Method (Eurofins Pharma Discovery Service) DNA-PK (h) was incubated in assay buffer containing 50 nM GST-cMyc-p53 and Mg/ATP (according to the required concentration). The reaction was initiated by adding Mg/ATP mixture. After 30 minutes of incubation at room temperature, the reaction was stopped by the addition of stop solution containing EDTA. Finally, detection buffer (containing labeled anti-GST monoclonal antibody and europium-labeled anti-Ser15 antibody against phosphorylated p53) was added.

[1] = Pharmacokinetic evaluation in mice, plasma, IV and PO; assay type: in vivo; conditions: Balb/c male mice; for Tlast / AUC(0-t) / C0 / clearance / half-life / Vd / Cmax / Tmax / AUC0-last / T1/2: plasma; for F: PO (2 mg/kg) vs IV (0.4 mg/kg); for Vd: read-out: Vdss
Experimental: The test compound was mixed with 10% dimethyl sulfoxide/50% polyethylene glycol 200/40% water, vortexed and sonicated to prepare a nearly clear solution of 0.08 mg/mL, which was filtered with a microporous membrane for use. Balb/c male mice of 18 to 20 grams were selected, and the candidate compound solution was administered intravenously at a dose of 0.4 mg/kg. The test compound was mixed with 10% dimethyl sulfoxide/50% polyethylene glycol 200/40% water, vortexed and sonicated to prepare a nearly clear solution of 0.2 mg/mL, which was filtered with a microporous membrane for use. Balb/c male mice of 18 to 20 grams were selected, and the candidate compound solution was orally administered at a dose of 2 mg/kg. Whole blood was collected for a certain period of time, and plasma was prepared, then drug concentration was analyzed by LC-MS/MS method, and pharmacokinetic parameters were calculated by Phoenix WinNonlin software (Pharsight, USA).
IV: intravenous administration; PO: oral administration; C0: instantaneous required concentration after intravenous injection; Cmax: maximum blood drug concentration after administration; Tmax: time required to reach the peak drug concentration after administration; T1/2: time required for the blood drug concentration to decrease by half; Vdss: apparent volume of distribution, refers to the proportional constant of the drug dose in vivo and the blood drug concentration when the drug reaches a dynamic equilibrium in vivo. Cl: clearance rate, refers to the apparent volume of distribution of the drug cleared in vivo per unit time; Tlast: time at the last detection point; AUC0-last: area under the drug-time curve, refers to the area surrounded by the blood drug concentration curve to the time axis; F: a measure of the speed and degree of drug absorption into the blood circulation, which is an important index for evaluating the degree of drug absorption.

[2] = ATP: 10 μM, read-out: DNA-PK kinase inhibitory activity IC50
[3] = mouse, PO (2 mg/kg), read-out: Tmax

SMILES: COC1CCC2(CC1)C(=O)N(C)c1cnc(Nc3cn4ncnc4cc3C)nc12 (single isomer, unassigned) [Compound 3]
- IC50 (Human-derived DNA-PK; [2]): 10 nM

SMILES: COC1CCC2(CC1)C(=O)N(C)c1cnc(Nc3cn4ncnc4cc3C)nc12 (single isomer, unassigned) [Compound 4]
- IC50 (Human-derived DNA-PK; [2]): 4 nM

SMILES: Cc1cc2ncnn2cc1Nc1ncc2c(n1)C1(CCC(C(F)(F)F)CC1)C(=O)N2C (single isomer, unassigned) [Compound 18]
- IC50 (Human-derived DNA-PK; [2]): 4 nM

SMILES: Cc1cc2ncnn2cc1Nc1ncc2c(n1)C1(CCC(C(F)(F)F)CC1)C(=O)N2C (single isomer, unassigned) [Compound 19]
- IC50 (Human-derived DNA-PK; [2]): 7 nM

SMILES: Cc1cc2ncnn2cc1Nc1ncc2c(n1)C1(CCC(O)CC1)C(=O)N2C (single isomer, unassigned) [Compound 22]
- IC50 (Human-derived DNA-PK; [2]): 11 nM

SMILES: COC1(C)CCC2(CC1)C(=O)N(C)c1cnc(Nc3cn4ncnc4cc3C)nc12 (single isomer, unassigned) [Compound 27]
- IC50 (Human-derived DNA-PK; [2]): 10 nM

SMILES: COC1(C)CCC2(CC1)C(=O)N(C)c1cnc(Nc3cn4ncnc4cc3C)nc12 (single isomer, unassigned) [Compound 28]
- IC50 (Human-derived DNA-PK; [2]): 3 nM

SMILES: Cc1cc2ncnn2cc1Nc1ncc2c(n1)C1(CCOCC1)C(=O)N2C [Compound 1]
- IC50 (Human-derived DNA-PK; DNA-PK kinase inhibitory activity IC50, ATP: 10 μM): 39 nM

SMILES: Cc1cc2ncnn2cc1Nc1ncc2c(n1)C1(CCCCC1)C(=O)N2C [Compound 2]
- IC50 (Human-derived DNA-PK; [2]): 6 nM

SMILES: Cc1cc2ncnn2cc1Nc1ncc2c(n1)C1(CCCOCC1)C(=O)N2C (stereo not shown) [Compound 5]
- IC50 (Human-derived DNA-PK; [2]): 16 nM

SMILES: CC(=O)N1CCC2(CC1)C(=O)N(C)c1cnc(Nc3cn4ncnc4cc3C)nc12 [Compound 6]
- IC50 (Human-derived DNA-PK; [2]): 6 nM

SMILES: Cc1cc2ncnn2cc1Nc1ncc2c(n1)C1(CCN(C)CC1)C(=O)N2C [Compound 7]
- IC50 (Human-derived DNA-PK; [2]): 25 nM

SMILES: Cc1cc2ncnn2cc1Nc1ncc2c(n1)C1(CCN(CC(F)(F)F)CC1)C(=O)N2C [Compound 8]
- IC50 (Human-derived DNA-PK; [2]): 4 nM

SMILES: Cc1cc2ncnn2cc1Nc1ncc2c(n1)C1(CCC(F)(F)CC1)C(=O)N2C [Compound 9]
- IC50 (Human-derived DNA-PK; [2]): 3 nM
- Tlast ([1]; IV (0.4 mg/kg)): 2 h
- F [1]: 74.5%
- Tlast ([1]; PO (2 mg/kg)): 4 h
- AUC(0-t) ([1]; mouse, IV (0.4 mg/kg)): 0.311 µM·h
- C0 ([1]; mouse, IV (0.4 mg/kg)): 871 nM
- clearance ([1]; mouse, IV (0.4 mg/kg)): 53.4 mL/min/kg
- half-life ([1]; mouse, IV (0.4 mg/kg)): 14.5 min
- Vd ([1]; mouse, IV (0.4 mg/kg)): 1.07 L/kg
- AUC(0-t) ([1]; mouse, PO (2 mg/kg)): 1.16 µM·h
- Cmax ([1]; mouse, PO (2 mg/kg)): 1080 nM
- half-life ([1]; mouse, PO (2 mg/kg)): 28.7 min
- Tmax [1, 3]: 30 min

SMILES: Cc1cc2ncnn2cc1Nc1ncc2c(n1)C1(CC=C(F)CC1)C(=O)N2C (stereo not shown) [Compound 10]
- IC50 (Human-derived DNA-PK; [2]): 7 nM

SMILES: Cc1cc2ncnn2cc1Nc1ncc2c(n1)C1(CCC3(CCC3)CC1)C(=O)N2C [Compound 11]
- IC50 (Human-derived DNA-PK; [2]): 1 nM
- Tlast ([1]; IV (0.4 mg/kg)): 2 h
- F [1]: 73.7%
- Tlast ([1]; PO (2 mg/kg)): 4 h
- AUC(0-t) ([1]; mouse, IV (0.4 mg/kg)): 0.349 µM·h
- C0 ([1]; mouse, IV (0.4 mg/kg)): 1250 nM
- clearance ([1]; mouse, IV (0.4 mg/kg)): 47.2 mL/min/kg
- half-life ([1]; mouse, IV (0.4 mg/kg)): 14.5 min
- Vd ([1]; mouse, IV (0.4 mg/kg)): 0.855 L/kg
- AUC(0-t) ([1]; mouse, PO (2 mg/kg)): 1.29 µM·h
- Cmax ([1]; mouse, PO (2 mg/kg)): 1220 nM
- half-life ([1]; mouse, PO (2 mg/kg)): 29.6 min
- Tmax [1, 3]: 30 min

SMILES: Cc1cc2ncnn2cc1Nc1ncc2c(n1)C1(CCC(C)(C)CC1)C(=O)N2C [Compound 12]
- IC50 (Human-derived DNA-PK; [2]): 1 nM
- AUC0-last ([1]; IV (0.4 mg/kg)): 0.358 µM·h
- T1/2 ([1]; IV (0.4 mg/kg)): 12.2 min
- Tlast ([1]; IV (0.4 mg/kg)): 1 h
- F [1]: 114%
- AUC0-last ([1]; PO (2 mg/kg)): 2.036 µM·h
- Cmax ([1]; PO (2 mg/kg)): 1860 nM
- T1/2 ([1]; PO (2 mg/kg)): 29.5 min
- Tlast ([1]; PO (2 mg/kg)): 4 h
- Tmax ([1]; PO (2 mg/kg)): 30 min
- C0 ([1]; mouse, IV (0.4 mg/kg)): 1280 nM
- clearance ([1]; mouse, IV (0.4 mg/kg)): 45.8 mL/min/kg
- Vd ([1]; mouse, IV (0.4 mg/kg)): 0.794 L/kg

SMILES: Cc1cc2ncnn2cc1Nc1ncc2c(n1)C1(CCC3(CC1)COC3)C(=O)N2C [Compound 13]
- IC50 (Human-derived DNA-PK; [2]): 6 nM

SMILES: CON=C1CCC2(CC1)C(=O)N(C)c1cnc(Nc3cn4ncnc4cc3C)nc12 (stereo not shown) [Compound 14]
- IC50 (Human-derived DNA-PK; [2]): 11 nM

SMILES: Cc1cc2ncnn2cc1Nc1ncc2c(n1)C1(CCC3(CC3)CC1)C(=O)N2C [Compound 15]
- IC50 (Human-derived DNA-PK; [2]): 4 nM
- AUC0-last ([1]; IV (0.4 mg/kg)): 0.454 µM·h
- T1/2 ([1]; IV (0.4 mg/kg)): 15.2 min
- Tlast ([1]; IV (0.4 mg/kg)): 2 h
- F [1]: 83%
- AUC0-last ([1]; PO (2 mg/kg)): 1.882 µM·h
- T1/2 ([1]; PO (2 mg/kg)): 59.8 min
- Tlast ([1]; PO (2 mg/kg)): 8 h
- Tmax ([1]; PO (2 mg/kg)): 15 min
- C0 ([1]; mouse, IV (0.4 mg/kg)): 1230 nM
- clearance ([1]; mouse, IV (0.4 mg/kg)): 37.6 mL/min/kg
- Vd ([1]; mouse, IV (0.4 mg/kg)): 0.853 L/kg
- Cmax ([1]; mouse, PO (2 mg/kg)): 1640 nM

SMILES: Cc1cc2ncnn2cc1Nc1ncc2c(n1)C1(CC1)C(=O)N2C [Compound 16]
- IC50 (Human-derived DNA-PK; [2]): 39 nM

SMILES: Cc1cc2ncnn2cc1Nc1ncc2c(n1)C1(CCCC1)C(=O)N2C [Compound 17]
- IC50 (Human-derived DNA-PK; [2]): 7 nM

SMILES: Cc1cc2ncnn2cc1Nc1ncc2c(n1)C1(CCC(=O)CC1)C(=O)N2C [Compound 20]
- IC50 (Human-derived DNA-PK; [2]): 15 nM

SMILES: Cc1cc2ncnn2cc1Nc1ncc2c(n1)C1(CCSCC1)C(=O)N2C [Compound 23]
- IC50 (Human-derived DNA-PK; [2]): 8 nM

SMILES: Cc1cc2ncnn2cc1Nc1ncc2c(n1)C1(CCS(=O)(=O)CC1)C(=O)N2C [Compound 24]
- IC50 (Human-derived DNA-PK; [2]): 84 nM
